Patent US11951094B2, “TLR2 modulator compounds, pharmaceutical compositions and uses thereof” (Axial Therapeutics, Inc., priority 2020, dated 2024)

The molecules below were run against TLR2 (Homo sapiens, UniProt O60603) (assay: TLR2 agonist screening assay, HEK-Blue TLR2 reporter cell line (NF-kB-driven SEAP, absorbance at 600 nm)). Conditions: HEK-Blue TLR2 reporter cells, agonist mode; average of all runs (Table 3).
Chain of TLR2 (O60603 21-784): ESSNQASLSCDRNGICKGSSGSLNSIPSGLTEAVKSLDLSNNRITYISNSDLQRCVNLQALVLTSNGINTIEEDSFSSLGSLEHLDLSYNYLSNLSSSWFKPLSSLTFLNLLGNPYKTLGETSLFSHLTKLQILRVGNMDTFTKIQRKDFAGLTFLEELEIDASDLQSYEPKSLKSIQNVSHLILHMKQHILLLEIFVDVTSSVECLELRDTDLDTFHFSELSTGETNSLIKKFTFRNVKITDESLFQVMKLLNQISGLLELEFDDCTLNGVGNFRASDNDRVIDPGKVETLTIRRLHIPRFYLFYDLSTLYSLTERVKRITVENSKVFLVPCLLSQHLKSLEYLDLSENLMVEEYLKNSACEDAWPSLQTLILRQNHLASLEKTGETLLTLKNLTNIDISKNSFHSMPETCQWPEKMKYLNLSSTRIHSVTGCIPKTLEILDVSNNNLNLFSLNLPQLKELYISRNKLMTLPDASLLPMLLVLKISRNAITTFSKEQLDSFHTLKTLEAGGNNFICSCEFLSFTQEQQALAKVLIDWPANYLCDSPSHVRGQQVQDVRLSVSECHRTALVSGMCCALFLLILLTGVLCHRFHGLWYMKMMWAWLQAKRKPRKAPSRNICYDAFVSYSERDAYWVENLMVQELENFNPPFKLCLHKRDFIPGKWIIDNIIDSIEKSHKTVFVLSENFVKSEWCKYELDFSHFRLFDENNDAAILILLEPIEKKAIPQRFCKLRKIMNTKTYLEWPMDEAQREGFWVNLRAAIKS
Format: cell-based
Set-up: host or cells: HEK-293 (HEK-Blue TLR2 reporter cell line)
Text: TLRs are a class of cell-surface receptors expressed on many different cell types that recognize conserved structural motifs present on pathogen-derived molecules. TLR2 recognizes bacteria-derived lipopeptides. […] Provided herein is an assay to identify and characterize the binding affinities of novel TLR2 agonists.
The in vitro TLR2 assay consists of a cell line that responds to TLR2 engagement by producing a factor that elicits a color change in the culture media and can be readily measured by various colorimetric detection methods. This assay enables the identification of existing and novel compounds that engage TLR2 and, by virtue of compound dilution, to approximate the binding affinity of these compounds for eliciting a TLR2 signal.
The TLR2 screening assay was developed from the HEK-Blue TLR2 reporter cell line that is commercially available from Invivogen (San Diego, CA). The reporter cell line consists of HEK-293 embryonic kidney cells that have been engineered to express TLR2 and with an NF-kB promoter driving expression of Secreted Alkaline Phosphatase (SEAP). Upon engagement of TLR2, downstream signaling results in activation of NF-kB pathway activation and secretion of SEAR In the presence of the detection reagent in the tissue culture media, SEAP mediates a color change from clear to indigo that is readily assessed by measuring absorbance at 600 nm.
HEK-Blue TLR2 reporter cells are cultured according to manufacturer's specifications until a confluence of 70-90%, at which point the cells are trypsinized, counted, and plated into 96-well plates at approximately 40,000 cells per well. Cells are cultured overnight and the TLR2 assay is performed 16-24 hours post-plating into 96 well plates.
Compounds are diluted from stocks dissolved in DMSO and a 1% DMSO final concentration is maintained in all testing wells.
The assay consists of removing the cell culture media after cells have been cultured overnight and replacing the media with HEK-Blue Detection media with TLR2 agonists at indicated dilution schemes. The Detection media contains a chemical substrate that turns from clear to indigo when acted upon by SEAP. The HEK-Blue cells are then cultured overnight in Detection media with diluted compounds. After overnight culture with agonists, each well of the plate is assayed in a plate reader at 600 nanometer absorbance.
• (1) HEK-Blue TLR2 cells are diluted in complete DME culture medium and plated into 96-well plates at 40,000 cells per well and cultured overnight. • (2) After 16-24 hours in culture, the media is removed and replaced with 200 microliters per well of HEK-Blue Detection media. • (3) TLR2 agonists are diluted 100-fold from DMSO stocks into each well, yielding a final DMSO concentration of 1% in all wells. • (3) Treated cells are cultured overnight and the following day are assayed in plate reader for Absorbance at 600 nanometer.
Following assay measurements utilizing either HEK-Blue detection or cytokine release, all data is analyzed with the GraphPad Prism8 statistical package to determine EC50, binding and activity metrics for the TLR2 modulators.
Data is generated using protocol described in Example 44.
`O=C(N[C@H]1C[C@@H]1c1ccccc1)[C@@H]1CN(C(=O)C23CC(C(=O)N4C[C@@H](C(=O)N[C@H]5C[C@@H]5c5ccccc5)[C@H](C(=O)N[C@H]5C[C@@H]5c5ccccc5)C4)(C2)C3)C[C@H]1C(=O)N[C@H]1C[C@@H]1c1ccccc1` [Compound 068] gave an EC50 greater than 1000 nM.
`CCCCCCCCCCCCCCNC(=O)[C@@H]1CN(C(=O)c2ccc(C(=O)N3C[C@@H](C(=O)N[C@H]4C[C@@H]4c4ccccc4)[C@H](C(=O)N[C@H]4C[C@@H]4c4ccccc4)C3)cc2)C[C@H]1NC(C)=O` [Compound 028, (3S,4S)-1-(4-((3S,4R)-3-acetamido-4-(tetradecylcarbamoyl)pyrrolidine-1-carbonyl)benzoyl)-N3,N4-bis((1S,2R)-2-phenylcyclopropyl)pyrrolidine-3,4-dicarboxamide] gave an EC50 of 51 to 350 nM.
`CCCCCCNC(=O)C1CN(C(=O)c2ccc(C(=O)N3C[C@@H](C(=O)N[C@H]4C[C@@H]4c4ccccc4)[C@H](C(=O)N[C@H]4C[C@@H]4c4ccccc4)C3)cc2)CCN1C(=O)CCCCCC` (mixture of isomers) [Compound 056, (3S,4S)-1-(4-(4-heptanoyl-3-(hexylcarbamoyl)piperazine-1-carbonyl)benzoyl)-N3,N4-bis((1S,2R)-2-phenylcyclopropyl)pyrrolidine-3,4-dicarboxamide] showed an EC50 of 0.1 to 50 nM.
`CCCCCCCCCCCCCCNC(=O)CC(C)(C)NC(=O)c1ccc(C(=O)N2C[C@@H](C(=O)N[C@H]3C[C@@H]3c3ccccc3)[C@H](C(=O)N[C@H]3C[C@@H]3c3ccccc3)C2)cc1` [Compound 011] was tested, and the EC50 was greater than 1000 nM.
Work on `CCCCCCCCNC(=O)C1CN(C(=O)c2ccc(C(=O)N3C[C@@H](C(=O)N[C@H]4C[C@@H]4c4ccccc4)[C@H](C(=O)N[C@H]4C[C@@H]4c4ccccc4)C3)cc2)CCN1C(=O)CCCCCCC` (stereo partly drawn) [Compound 065, (3S,4S)-1-(4-(4-octanoyl-3-(octylcarbamoyl)piperazine-1-carbonyl)benzoyl)-N3,N4-bis((1S,2R)-2-phenylcyclopropyl)pyrrolidine-3,4-dicarboxamide] yielded an EC50 of 51 to 350 nM.

Same assay, conditions: HEK-Blue TLR2 reporter cells, agonist mode; average of all runs (Table 4)
Work on `CCCCCCCCCCCCCCNC(=O)[C@@H]1CN(Cc2ccc(C(=O)N3C[C@@H](C(=O)N[C@H]4C[C@@H]4c4ccccc4)[C@H](C(=O)N[C@H]4C[C@@H]4c4ccccc4)C3)cc2)CCN1C` [Compound 088, (3S,4S)-1-(4-(((S)-4-methyl-3-(tetradecylcarbamoyl)piperazin-1-yl)methyl)benzoyl)-N3,N4-bis((1S,2R)-2-phenylcyclopropyl) pyrrolidine-3,4-dicarboxamide] yielded an EC50 greater than 1000 nM.
`CCCCCCNC(=O)[C@H](CNC(=O)c1ccc(C(=O)N2C[C@@H](C(=O)N[C@H]3C[C@@H]3c3ccccc3)[C@H](C(=O)N[C@H]3C[C@@H]3c3ccccc3)C2)cc1)NC(=O)NCCCCC` [Compound 137, (3S,4S)-1-(4-(((S)-3-(hexylamino)-3-oxo-2-(3-pentylureido)propyl)carbamoyl)benzoyl)-N3,N4-bis((1S,2R)-2-phenylcyclopropyl)pyrrolidine-3,4-dicarboxamide] gave an EC50 of 51 to 350 nM.
`CCCCCCCNC(=O)[C@@H]1CN(C(=O)c2ccc(C(=O)N3C[C@@H](C(=O)N[C@H]4C[C@@H]4c4ccccc4)[C@H](C(=O)N[C@H]4C[C@@H]4c4ccccc4)C3)cc2)CCN1C(C)=O` [Compound 258, (3S,4S)-1-(4-((S)-4-acetyl-3-(heptylcarbamoyl)piperazine-1-carbonyl)benzoyl)-N3,N4-bis((1S,2R)-2-phenylcyclopropyl)pyrrolidine-3,4-dicarboxamide] was tested, and the EC50 was greater than 1000 nM.
With `CCCCCCCCCCCCCCC(=O)N[C@@H]1CCN(Cc2ccc(C(=O)N3C[C@@H](C(=O)N[C@H]4C[C@@H]4c4ccccc4)[C@H](C(=O)N[C@H]4C[C@@H]4c4ccccc4)C3)cc2)C1=O` [Compound 126, (3S,4S)-1-(4-(((R)-2-oxo-3-pentadecanamidopyrrolidin-1-yl)methyl)benzoyl)-N3,N4-bis((1S,2R)-2-phenylcyclopropyl)pyrrolidine-3,4-dicarboxamide] the EC50 was greater than 1000 nM.
For `CCCCCCCCCCCCCCCN1CCCC(NC(=O)c2ccc(C(=O)N3C[C@@H](C(=O)N[C@H]4C[C@@H]4c4ccccc4)[C@H](C(=O)N[C@H]4C[C@@H]4c4ccccc4)C3)cc2)C1=O` (stereo partly drawn) [Compound 136], the EC50 was 0.1 to 50 nM.
`CCCCCCCCN1C(=O)N(Cc2ccc(C(=O)N3C[C@@H](C(=O)N[C@H]4C[C@@H]4c4ccccc4)[C@H](C(=O)N[C@H]4C[C@@H]4c4ccccc4)C3)cc2)C[C@@H]1C(=O)NCCCCCC` [Compound 168, (3S,4S)-1-(4-(((R)-4-(hexylcarbamoyl)-3-octyl-2-oxoimidazolidin-1-yl)methyl)benzoyl)-N3,N4-bis((1S,2R)-2-phenylcyclopropyl)pyrrolidine-3,4-dicarboxamide] was tested, and the EC50 was 51 to 350 nM.
With `CCCCCCCCCC(=O)N[C@@H](Cc1nnc(-c2ccc(C(=O)N3C[C@@H](C(=O)N[C@H]4C[C@@H]4c4ccccc4)[C@H](C(=O)N[C@H]4C[C@@H]4c4ccccc4)C3)cc2)o1)C(=O)NCCCCCC` [Compound 259, (3S,4S)-1-(4-(5-((S)-2-decanamido-3-(hexylamino)-3-oxopropyl)-1,3,4-oxadiazol-2-yl)benzoyl)-N3,N4-bis((1S,2R)-2-phenylcyclopropyl)pyrrolidine-3,4-dicarboxamide] the EC50 was 351 to 1000 nM.
In the case of `CCCCCCCCCCCCCCNC(=O)[C@@H]1CN(C(=O)c2ccc(C(=O)N3C[C@@H](C(=O)N[C@H]4C[C@@H]4c4ccccc4)[C@H](C(=O)N[C@H]4C[C@@H]4c4ccccc4)C3)cc2)CCN1C(=O)C(C)(C)C` [Compound 251, (3S,4S)—N3,N4-bis((1S,2R)-2-phenylcyclopropyl)-1-(4-((S)-4-pivaloyl-3-(tetradecylcarbamoyl)piperazine-1-carbonyl)benzoyl)pyrrolidine-3,4-dicarboxamide], the EC50 is reported as greater than 1000 nM.
In the case of `CCCCCCNC(=O)[C@H](CNC(=O)c1ccc(C(=O)N2C[C@@H](C(=O)N[C@H]3C[C@@H]3c3ccccc3)[C@H](C(=O)N[C@H]3C[C@@H]3c3ccccc3)C2)cc1)NC(=O)CCCC` [Compound 130, (3S,4S)-1-(4-(((S)-3-(hexylamino)-3-oxo-2-pentanamidopropyl)carbamoyl)benzoyl)-N3,N4-bis((1S,2R)-2-phenylcyclopropyl)pyrrolidine-3,4-dicarboxamide], the EC50 is reported as 351 to 1000 nM.
For `CCCCCCCCCC(=O)N[C@@H](CN1C(=O)c2ccc(C(=O)N3C[C@@H](C(=O)N[C@H]4C[C@@H]4c4ccccc4)[C@H](C(=O)N[C@H]4C[C@@H]4c4ccccc4)C3)cc2C1=O)C(=O)NCCCCCC` [Compound 240, (3S,4S)-1-(2-((S)-2-decanamido-3-(hexylamino)-3-oxopropyl)-1,3-dioxoisoindoline-5-carbonyl)-N3,N4-bis((1S,2R)-2-phenylcyclopropyl)pyrrolidine-3,4-dicarboxamide], the EC50 was greater than 1000 nM.
For `CCCCCCCCCC(=O)N[C@@H](CNc1nc2ccc(C(=O)N3C[C@@H](C(=O)N[C@H]4C[C@@H]4c4ccccc4)[C@H](C(=O)N[C@H]4C[C@@H]4c4ccccc4)C3)cc2s1)C(=O)NCCCCCC` [Compound 262, (3S,4S)-1-(2-(((S)-2-decanamido-3-(hexylamino)-3-oxopropyl)amino)benzo[d]thiazole-6-carbonyl)-N3,N4-bis((1S,2R)-2-phenylcyclopropyl)pyrrolidine-3,4-dicarboxamide], the EC50 was greater than 1000 nM.
Molecule `CCCCCCCCCCCCCCNC(=O)[C@H]1CN(S(=O)(=O)c2ccc(C(=O)N3C[C@@H](C(=O)N[C@H]4C[C@@H]4c4ccccc4)[C@H](C(=O)N[C@H]4C[C@@H]4c4ccccc4)C3)cc2)CCN1C(C)=O` [Compound 195, (3S,4S)-1-(4-(((R)-4-acetyl-3-(tetradecylcarbamoyl)piperazin-1-yl)sulfonyl)benzoyl)-N3,N4-bis((1S,2R)-2-phenylcyclopropyl)pyrrolidine-3,4-dicarboxamide] has an EC50 greater than 1000 nM.
`CCCCCCNC(=O)[C@H](CNC(=O)c1ccc(C(=O)N2C[C@@H](C(=O)N[C@H]3C[C@@H]3c3ccccc3)[C@H](C(=O)N[C@H]3C[C@@H]3c3ccccc3)C2)cc1)NC(=O)OCCCCCC` [Compound 226, hexyl ((S)-3-(4-((3S,4S)-3,4-bis(((1S,2R)-2-phenylcyclopropyl)carbamoyl)pyrrolidine-1-carbonyl)benzamido)-1-(hexylamino)-1-oxopropan-2-yl)carbamate] was tested, and the EC50 was greater than 1000 nM.
